According to ChEMBL document CHEMBL3879908, “Pyrrolidinone carboxamide derivatives” (2014):

Biological target: T1, Chemerin-like receptor 1 (Homo sapiens, UniProt Q99788)
T1 sequence (Q99788 whole entry): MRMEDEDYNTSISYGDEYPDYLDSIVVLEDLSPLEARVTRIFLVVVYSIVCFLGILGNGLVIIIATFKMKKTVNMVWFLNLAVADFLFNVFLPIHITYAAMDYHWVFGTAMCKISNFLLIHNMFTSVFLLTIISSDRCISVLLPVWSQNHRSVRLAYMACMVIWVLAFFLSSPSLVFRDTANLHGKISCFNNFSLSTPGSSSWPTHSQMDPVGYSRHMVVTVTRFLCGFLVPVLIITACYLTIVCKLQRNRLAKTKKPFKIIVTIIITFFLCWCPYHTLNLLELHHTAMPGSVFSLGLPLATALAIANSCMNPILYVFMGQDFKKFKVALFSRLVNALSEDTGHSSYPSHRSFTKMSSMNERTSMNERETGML
Assay: Displacement of [125I]-chemerin from ChemR23 (unknown origin) transfected in mouse BaF3 cells after 3 hrs by scintillation counting method
Format: cell-based

Compound | IC50 [µM]
Cc1ccccc1N1CC(C(=O)Nc2cc(C(F)(F)F)cc(C(F)(F)F)c2)CC1=O (configuration not stated) | 0.03 to 0.3
Cc1cccc(Cl)c1N1CC(C(=O)Nc2cc(C(F)(F)F)cc(C(F)(F)F)c2)CC1=O (configuration not stated) | 0.03 to 0.3
CCC1(C(=O)Nc2cc(C(F)(F)F)cc(C(F)(F)F)c2)CC(=O)N(c2c(C)cccc2C)C1 (configuration not stated) | ≤ 0.03
CCN(CC1CC1)C[C@@]1(C(=O)Nc2cc(C(F)(F)F)cc(C(F)(F)F)c2)CN(c2c(C)cccc2C)C(=O)[C@H]1C | ≤ 0.03
Cc1cccc(C)c1N1CC(C(=O)Nc2cc(Cl)cc(C#N)c2)CC1=O (configuration not stated) | 0.3 to 6
Cc1ccccc1N1CC(C)(C(=O)Nc2cc(C(F)(F)F)cc(C(F)(F)F)c2)C(C)C1=O (configuration not stated) | ≤ 0.03
Cc1cccc(C)c1N1C[C@@](CN(C)C)(C(=O)Nc2cc(C3CC3)cc(C(F)(F)F)c2)[C@H](C)C1=O | 0.03 to 0.3
Cc1cccc(F)c1N1CC(C(=O)Nc2cccc(Cl)c2)CC1=O (configuration not stated) | 0.3 to 6
Cc1cccc(C)c1N1CC(CCCO)(C(=O)Nc2cc(C(F)(F)F)cc(C(F)(F)F)c2)CC1=O (configuration not stated) | 0.03 to 0.3
Cc1cccc(C)c1N1CC(C(=O)Nc2cc(C(F)(F)F)cc(C(F)(F)F)c2)(C2CCSCC2)CC1=O (configuration not stated) | ≤ 0.03
Cc1cccc(C)c1N1CC(C(=O)Nc2cc(C(F)(F)F)cc(C(F)(F)F)c2)(C2=CCNCC2)CC1=O (configuration not stated) | 0.3 to 6
CC(C)C1(C(=O)Nc2cc(C3CC3)cc(C(F)(F)F)c2)CC(=O)N(c2ccccc2Cl)C1 (configuration not stated) | 0.03 to 0.3
Cc1cccc(C)c1N1CC(C(=O)Nc2cc(C#N)cc(C(F)(F)F)c2)CC1=O (configuration not stated) | 0.03 to 0.3
Cc1cccc(C)c1N1C[C@@](C)(C(=O)Nc2cc(Cl)cc(Cl)c2)[C@H](C)C1=O | ≤ 0.03
Cc1cccc(C)c1N1C[C@@](CN2CCCCC2)(C(=O)Nc2cc(C3CC3)cc(C(F)(F)F)c2)[C@H](C)C1=O | 0.03 to 0.3
Cc1cccc(C)c1N1CC(C(=O)Nc2cc(C(F)(F)F)cc(C(F)(F)F)c2)(C2=CCOCC2)CC1=O (configuration not stated) | ≤ 0.03
Cc1cccc(C)c1N1C[C@@](CN(C)CC2CCC2)(C(=O)Nc2cc(C(F)(F)F)cc(C(F)(F)F)c2)[C@H](C)C1=O | 0.03 to 0.3
COc1cccc(C)c1N1CC(C(=O)Nc2cc(C(F)(F)F)cc(C(F)(F)F)c2)(C(C)C)CC1=O (configuration not stated) | 0.3 to 6
CCC1(C(=O)Nc2cccc(C(F)(F)F)c2)CC(=O)N(c2c(C)cccc2C)C1 (configuration not stated) | 0.3 to 6
Cc1cccc(C)c1N1CC(C(=O)Nc2cc(C(F)(F)F)cc(C(F)(F)F)c2)(C2CCNC2)CC1=O (configuration not stated) | 0.3 to 6
C=C(C)CC1(C(=O)Nc2cc(C(F)(F)F)cc(C(F)(F)F)c2)CC(=O)N(c2c(C)cccc2C)C1 (configuration not stated) | ≤ 0.03
Cc1cccc(C)c1N1CC2(C(=O)Nc3cc(C(F)(F)F)cc(C(F)(F)F)c3)COCC2C1=O (configuration not stated) | 0.03 to 0.3
CC(C)C1(C(=O)Nc2cc(C(F)(F)F)cc(C(F)(F)F)c2)CC(=O)N(c2ccccc2Cl)C1 (configuration not stated) | 0.03 to 0.3
Cc1cccc(C)c1N1CC2(C(=O)Nc3cc(C(F)(F)F)cc(C(F)(F)F)c3)COCCC2C1=O (configuration not stated) | 0.3 to 6
CC[C@@]1(C(=O)Nc2ccc(C)c(C(F)(F)F)c2)CN(c2c(C)cccc2C)C(=O)[C@H]1C | 0.03 to 0.3
Cc1cccc(C)c1N1C[C@]2(C(=O)Nc3cc(C(F)(F)F)cc(C(F)(F)F)c3)CCO[C@@H]2C1=O | ≤ 0.03

Compound | IC50 [µM]
Cc1cc(C)n(C2(C(=O)Nc3cc(C(F)(F)F)cc(C(F)(F)F)c3)CC(=O)N(c3c(C)cccc3C)C2)n1 (configuration not stated) | ≤ 0.03
CC[C@]1(C(=O)Nc2cc(Cl)cc(C(F)(F)F)c2)CC(=O)N(c2c(C)cccc2C)C1 | 0.03 to 0.3
Cc1cccc(C)c1N1C[C@@](CN(C)CC(F)(F)F)(C(=O)Nc2cc(C(F)(F)F)cc(C(F)(F)F)c2)[C@H](C)C1=O | ≤ 0.03
Cc1cccc(C)c1N1CC(C(=O)Nc2cc(C(F)(F)F)cc(C(F)(F)F)c2)(C2=CCSCC2)CC1=O (configuration not stated) | ≤ 0.03
Cc1cccc(C)c1N1C[C@@](CN(C)CC(C)C)(C(=O)Nc2cc(C3CC3)cc(C(F)(F)F)c2)[C@H](C)C1=O | 0.03 to 0.3
Cc1cccc(C)c1N1C[C@@](CN2CCC(F)(F)CC2)(C(=O)Nc2cc(OC(C)C)cc(C(F)(F)F)c2)[C@H](C)C1=O | ≤ 0.03
CC[C@@]1(C(=O)Nc2cc(C(F)(F)F)cc(C(F)(F)F)c2)CN(c2c(C)cccc2C)C(=O)[C@@H]1C | 0.03 to 0.3
Cc1cccc(CO)c1N1CC(C(=O)Nc2cc(C(F)(F)F)cc(C(F)(F)F)c2)(C(C)C)CC1=O (configuration not stated) | 0.03 to 0.3
Cc1cccc(C)c1N1CC(O)(C(=O)Nc2cc(C(F)(F)F)cc(C(F)(F)F)c2)CC1=O (configuration not stated) | 0.03 to 0.3
Cc1cccc(C)c1N1C[C@@](CN2CCOC[C@H]2C)(C(=O)Nc2cc(C(F)(F)F)cc(C(F)(F)F)c2)[C@H](C)C1=O | 0.03 to 0.3
Cc1cccc(C)c1N1C[C@@](CN(C)CCF)(C(=O)Nc2cc(C(F)(F)F)cc(C(F)(F)F)c2)[C@H](C)C1=O | ≤ 0.03
Cc1cccc(C)c1N1C[C@@](CN(CCF)CCF)(C(=O)Nc2cc(C(F)(F)F)cc(C(F)(F)F)c2)[C@H](C)C1=O | ≤ 0.03
CCN(C)C[C@@]1(C(=O)Nc2cc(C3CC3)cc(C(F)(F)F)c2)CN(c2c(C)cccc2C)C(=O)[C@H]1C | 0.03 to 0.3
Cc1cccc(C)c1N1CC2(C(=O)Nc3cc(C(F)(F)F)cc(C(F)(F)F)c3)CC(N3CCCC3)CC2C1=O (configuration not stated) | 0.03 to 0.3
COC1CCN(C[C@@]2(C(=O)Nc3cc(C#N)cc(C(F)(F)F)c3)CN(c3c(C)cccc3C)C(=O)[C@H]2C)CC1 | 0.03 to 0.3
Cc1cccc(C)c1N1CC(C(=O)Nc2cc(C(F)(F)F)cc(C(F)(F)F)c2)(C2=CCN(C(=O)OC(C)(C)C)CC2)CC1=O (configuration not stated) | ≤ 0.03
CCCN(CC)C[C@@]1(C(=O)Nc2cc(C(F)(F)F)cc(C(F)(F)F)c2)CN(c2c(C)cccc2C)C(=O)[C@H]1C | ≤ 0.03
CC[C@@]1(C(=O)Nc2cc(OC)cc(C(F)(F)F)c2)CN(c2c(C)cccc2C)C(=O)[C@H]1C | 0.03 to 0.3
Cc1cccc(C)c1N1CC2(C(=O)Nc3cc(C(F)(F)F)cc(C(F)(F)F)c3)CCCC2C1=O (configuration not stated) | ≤ 0.03
C/C=C/c1ccccc1N1CC(C(=O)Nc2cc(C(F)(F)F)cc(C(F)(F)F)c2)(C(C)C)CC1=O (configuration not stated) | 0.03 to 0.3
Cc1cccc(C)c1N1C[C@@](CN(C)CC2CC2)(C(=O)Nc2cc(C#N)cc(C(F)(F)F)c2)[C@H](C)C1=O | 0.03 to 0.3
C=CCc1ccccc1N1CC(C(=O)Nc2cc(C(F)(F)F)cc(C(F)(F)F)c2)(C(C)C)CC1=O (configuration not stated) | 0.03 to 0.3
COCC(C)(C)N(C)C[C@@]1(C(=O)Nc2cc(C(F)(F)F)cc(C(F)(F)F)c2)CN(c2c(C)cccc2C)C(=O)[C@H]1C | ≤ 0.03
C=CCc1cccc(C)c1N1CC(C(=O)Nc2cc(C(F)(F)F)cc(C(F)(F)F)c2)(C(C)C)CC1=O (configuration not stated) | ≤ 0.03
Cc1cccc(C)c1N1CC(NC(C)C)(C(=O)Nc2cc(C(F)(F)F)cc(C(F)(F)F)c2)CC1=O (configuration not stated) | ≤ 0.03
CC[C@@]1(C(=O)Nc2cc(F)cc(C(F)(F)F)c2)CN(c2c(C)cccc2C)C(=O)[C@H]1C | 0.03 to 0.3

Compound | IC50 [µM]
Cc1cccc(C)c1N1CC(C(=O)Nc2cc(C(F)(F)F)cc(C(F)(F)F)c2)(C2CCCCC2)CC1=O (configuration not stated) | ≤ 0.03
Cc1cccc(C)c1N1CC(Cc2ncc[nH]2)(C(=O)Nc2cc(C(F)(F)F)cc(C(F)(F)F)c2)CC1=O (configuration not stated) | 0.03 to 0.3
Cc1cccc(C)c1N1C[C@@](CN(C)C2CCCCC2)(C(=O)Nc2cc(C(F)(F)F)cc(C(F)(F)F)c2)[C@H](C)C1=O | ≤ 0.03
CCc1cccc(C)c1N1CC(C(=O)Nc2ccc(F)c(C(F)(F)F)c2)CC1=O (configuration not stated) | 0.3 to 6
Cc1cccc(C)c1N1CC2(C(=O)Nc3cc(C(F)(F)F)cc(C(F)(F)F)c3)CC(O)CC2C1=O (configuration not stated) | 0.03 to 0.3
Cc1cccc(C)c1N1C[C@@](CN2CCCC2)(C(=O)Nc2cc(C(F)(F)F)cc(C(F)(F)F)c2)[C@H](C)C1=O | 0.3 to 6
Cc1cccc(C)c1N1CC(C(=O)Nc2cc(C(F)(F)F)cc(C(F)(F)F)c2)(C2=CCN(C)CC2)CC1=O (configuration not stated) | 0.03 to 0.3
CO[C@H]1CC2C(=O)N(c3c(C)cccc3C)CC2(C(=O)Nc2cc(C(F)(F)F)cc(C(F)(F)F)c2)C1 (some centres not stated) | ≤ 0.03
Cc1cccc(C)c1N1C[C@@](CN(C)CC(C)C)(C(=O)Nc2cc(OC(C)C)cc(C(F)(F)F)c2)[C@H](C)C1=O | ≤ 0.03
Cc1ccccc1N1CC(C(=O)Nc2cc(C(F)(F)F)cc(C(F)(F)F)c2)(C(C)C)CC1=O (configuration not stated) | ≤ 0.03
CCN(CCF)C[C@@]1(C(=O)Nc2cc(C(F)(F)F)cc(C(F)(F)F)c2)CN(c2c(C)cccc2C)C(=O)[C@H]1C | ≤ 0.03
Cc1cccc(C)c1N1CC(C(=O)Nc2cc(F)cc(F)c2)CC1=O (configuration not stated) | 0.3 to 6
Cc1cccc(C)c1N1CC(C(=O)Nc2cc(N3CCCCC3)cc(C(F)(F)F)c2)CC1=O (configuration not stated) | 0.03 to 0.3
Cc1cccc(C)c1N1C[C@@](CN2CCC2)(C(=O)Nc2cc(C(F)(F)F)cc(C(F)(F)F)c2)[C@H](C)C1=O | 0.03 to 0.3
Cc1cccc(C)c1N1CC(C(=O)Nc2cc(N3CCOCC3)cc(C(F)(F)F)c2)CC1=O (configuration not stated) | 0.03 to 0.3
Cc1ccc(C)c(N2CC(C(=O)Nc3cc(C(F)(F)F)cc(C(F)(F)F)c3)CC2=O)c1 (configuration not stated) | 0.03 to 0.3
Cc1cccc(C)c1N1C[C@@](CN(C)C(C)C)(C(=O)Nc2cc(C#N)cc(C(F)(F)F)c2)[C@H](C)C1=O | ≤ 0.03
Cc1cccc(C)c1N1C[C@]2(C(=O)Nc3cc(C(F)(F)F)cc(C(F)(F)F)c3)OCC[C@@H]2C1=O | 0.03 to 0.3
CCc1cccc(NC(=O)C2CC(=O)N(c3c(C)cccc3C)C2)c1 (configuration not stated) | 0.3 to 6
Cc1cccc(C)c1N1CC(C(=O)Nc2cccc(C(F)(F)F)c2)CC1=O (configuration not stated) | 0.3 to 6
Cc1cccc(C)c1N1C[C@@](CC(C)C)(C(=O)Nc2cc(C(F)(F)F)cc(C(F)(F)F)c2)[C@H](C)C1=O | ≤ 0.03
COCCN(C)C[C@@]1(C(=O)Nc2cc(C(F)(F)F)cc(C(F)(F)F)c2)CN(c2c(C)cccc2C)C(=O)[C@H]1C | 0.03 to 0.3
CCc1cccc(C)c1N1CC(C(=O)Nc2cc(C(F)(F)F)cc(C(F)(F)F)c2)CC1=O (configuration not stated) | ≤ 0.03
Cc1cccc(C)c1N1CC(C(=O)Nc2cc(C(F)(F)F)cc(C(F)(F)F)c2)(N2CCCC2)CC1=O (configuration not stated) | ≤ 0.03
COc1cccc(C)c1N1CC(C(=O)Nc2cc(F)cc(F)c2)CC1=O (configuration not stated) | 0.03 to 0.3
